The values below come from patent US11702399B2, “Quinazolinone derivative, preparation method therefor, pharmaceutical composition, and applications” (KANGPU BIOPHARMACEUTICALS, LTD., priority 2016, dated 2023).

SMILES strings stand for the structures. Like-named read-outs stand apart in the source and are kept apart here.

Holding throughout (type): cell-based
In experiment [1] the test system is NCI-H929 cells (myeloma cells). The experiment in a line: CTG cell proliferation, NCI-H929. The settings on record: Homo sapiens, Table 2 batch, CellTiter-Glo, 72-120 hours, read-out: IC50 value for NCI-H929 Inhibition. An excerpt: (§1) Efficacy Example 2: CTG Cell Proliferation Experimental Method
(§2) MM.1S cells (myeloma cells) (ATCC, catalog number CRL-2974), DOHH2 cells (mantle cell lymphoma cells) (DSMZ, catalog number ACC-47), NCI-H929 cells (myeloma cells) (ATCC, catalog number CRL-9068), or WSU-DLCL-2 cells (diffuse large B cell lymphoma cells) (DSMZ, catalog number ACC-575), Namalwa.CSN/70 cells (non-Hodgkin's lymphoma cells (DSMZ, catalog number ACC-70) was inoculated as (1.8-15)×10^3 per well in white wall, transparent bottom 96-well plate containing specific media (Corning, catalog number CLS3903), which was cultured in 37° C., 5% CO2 incubator for 24 hours. Compounds were formulated in DMSO (Sigma, Cat. No. 276855) as 150 mM stock, which was diluted to the required concentration (DMSO final concentration is 0.2%) in culture medium and added to each well, 2 wells/concentration. The plate was incubated in 37° C., 5% CO2 incubator for 72-120 hours. Afterwards, 100 μl of CellTiter-Glo® cell activity assay reagent (Promega, Cat. No. G7570) was added to each well, which was mixed on a plate shaker for 10 minutes to induce cell lysis. The 96-well plate was allowed to stand at room temperature for 10 minutes to stabilize the luminescence signal. A white base film was pasted on the bottom of the plate and the EnSpire was used to read the plate. Data processing was performed with XLfit software to obtain IC50 values.
(In general: In ATP-based viability assays light output follows the ATP content of the culture.)

Experiment [2] has as its system MM.1S cells (myeloma cells). The experiment can be described thus: CTG cell proliferation, MM.1S. The settings on record: Homo sapiens, MM1.S, CellTiter-Glo, 72-120 hours, read-out: IC50 value for MM.1S Inhibition.
From the text: as §1, §2

Experiment [3] deals with WSU-DLCL-2 cells (diffuse large B cell lymphoma cells). The experiment can be described thus: CTG cell proliferation, WSU-DLCL-2. Particulars: Homo sapiens, WSUDLCL2; Table 2 batch; CellTiter-Glo, 72-120 hours; read-out: IC50 value for WSU-DLCL2 Inhibition.
From the text: as §1, §2

The subject of experiment [4] is Namalwa.CSN/70 cells (non-Hodgkin's lymphoma cells). The experiment in a line: CTG cell proliferation, Namalwa.CSN/70. Particulars: Table 2 batch; CellTiter-Glo, 72-120 hours; read-out: IC50 value for Namalwa. CSN/70 Inhibition.
From the text: as §1, §2

Experiment [5] has as its system TNF-α. The experiment can be described thus: TNF-α activity inhibition assay (LPS-stimulated hPBMC, TNF-α ELISA). The settings on record: Homo sapiens, 18 h. As to the method:
Efficacy Example 1: TNF-α Activity Inhibition Assay
Heat Inactivated FBS: Invitrogen, Cat #10100147
DMSO: Dimethyl sulphoxide, Sigma, Cat #D8418
CTL-Anti-Aggregate Wash 20×: CTL, Cat #CTL-AA-005
Human TNF ELISA Set: BD, Cat #555212
PBMC Recovery and Cell Plating Steps
1) Agitation was performed continuously in a 37° C. water bath to rapidly thaw cells.
2) The cells were gently added to a 15 ml centrifuge tube, to which was then added 10 ml of fresh, prewarmed recovery medium gently and then centrifugation was performed at 1000 rpm for 10 min.
3) The supernatant medium was discarded and resuspension was performed with 10 ml of fresh, prewarmed RPMI 1640 complete medium.
1) The total number of cells needed for the experiment was calculated and adjusted to the appropriate cell concentration per ml. 100 ul and 10^5 cells per well.
2) The cell suspension was diluted with appropriate volume of cell culture medium.
3) The cell suspension was added to a disposable sterile sample well.
4) 100 ul of cell suspension was added to each well of a 96-well plate.
5) The plate was incubated in a 37° C., 5% CO2 incubator for 2 hours.
Compound Preparation Step
1. LPS: The 1 mg/mL stock solution was diluted with water, aliquoted, and stored at −80° C. Prior to each test, the working solution of LPS was diluted from the stock solution with serum-free RPMI 1640 medium.
20 mM stock solution was dissolved in DMSO and the compound was checked for solubility, aliquoted, and stored at −80° C.
8× compound gradient preparation: […]
A series of compound concentration gradient was diluted with DMSO: 10 mM, 2 mM, 0.4 mM, 80 uM, 16 uM, 3.2 uM, 0.64 uM, 0.128 uM were obtained and then the compounds were diluted 125-fold with serum-free RPMI 1640 medium to the final 8×. The final concentration of DMSO in cell culture was 0.1%.
Compound Processing Experimental Procedures and Collection of Supernatants
1. Cell Plating: Fresh cells were plated in 96-well cell culture plates according to the procedure above, 100 ul and 10^5 cells per well, and then incubated in a 37° C., 5% CO2 incubator for 2 hours.
2. Compound Preparation: Before test, compounds were added to the plates according to the above description. A dose of compound in 8× concentration was prepared with serum-free RPMI 1640 medium and all gradients of solution were added to the compound plate.
3. Compound addition: 16.7 ul of compound solution in working concentration was added to each well of the cell culture plate. The plate was incubated in a 37° C., 5% CO2 incubator for 1 hour.
4. 16.7 ul of 8×LPS per well (final concentration of LPS is EC80, the amount of each PBMC needed to be determined) was added. The plate was incubated for 18 hours in 37° C., 5% CO2 incubator.
5. 80 ul of supernatant per well was collected and then subjected to TNF-α ELISA assay. The collected supernatant can be stored at −80° C. The supernatant needed to be diluted in various ratios to ensure that the experimental dose would not exceed the linear range of the TNF-α standard curve, depending on the amount of TNF-α released in different donors. Typically, 20-100 ul of supernatant was diluted to 200 ul and then used for ELISA experiments.
The TNF-α ELISA test procedure were referred to the BD human TNF-α ELISA kit experimental procedure.
Four compounds per plate. 5-fold dilution was performed, starting from 10 uM, by 8 gradients, and parallel wells were made. A total of 16 compounds were tested.
The TNF-α standard was added to each plate. (1st well, starting from 500 pg/ml, 2-fold dilution, 7 gradients)
ZPE (0% inhibition) used 15 pg/ml LPS+0.1% DMSO, while HPE (100% inhibition) used only 0.1% DMSO.
The inhibition rate statistics were calculated. The inhibition rate (%)=[1−[…]]*100%. IC50 was used to evaluate the concentration of the test compound (nM) at 50% inhibition.
In general terms: ELISA stands for enzyme-linked immunosorbent assay.

In experiment [6] the test system is DOHH2 cells (mantle cell lymphoma cells). The experiment in a line: CTG cell proliferation, DOHH2. Particulars: Homo sapiens, DOHH-2; Table 2 batch; CellTiter-Glo, 72-120 hours; read-out: IC50 value for DOHH2 Inhibition.
From the text: as §1, §2

In the case of `Nc1cccc2c1CN(C1CCC(=O)NC1=O)C2=O` (stereo not shown) [Compound B001], the IC50 is 1000 nM in experiment [1]; 362 nM in experiment [2] (Table 2 batch); > 300000 nM in experiment [3]; > 300000 nM in experiment [4]; 99.1 nM in experiment [5] (Table 1-1 experiment); 192 nM in experiment [5] (Table 1 experiment). Moreover, the IC50 in experiment [6] was > 300000 nM.

For `Cc1nc2cccc(N)c2c(=O)n1C1CCC(=O)NC1=O` (stereo not shown) [Compound K001, reference compound], the IC50 in experiment [1] came out at 86.1 nM; in experiment [2] (Table 2 batch), 49.8 nM; in experiment [2] (Table 3 batch), 37.5 nM; in experiment [2] (Table 4 batch), 275 nM; in experiment [3], 469 nM; in experiment [4], 65.8 nM. Besides, the IC50 was 32.8 nM in experiment [5] (Table 1-1 experiment), 32.5 nM in experiment [5] (Table 1 experiment) and 459 nM in experiment [6].

As for `Cc1nc2cc(F)cc(N)c2c(=O)n1C1CCC(=O)NC1=O` (stereo not shown) [Compound K101], the IC50 was determined as 30.4 nM in experiment [1]; 13.3 nM in experiment [2] (Table 2 batch); 179 nM in experiment [3]; 6.8 nM in experiment [4]; 10.2 nM in experiment [5] (Table 1-1 experiment); 27.8 nM in experiment [5] (Table 1 experiment). Also, in experiment [6], the IC50 stood at 125 nM.

Regarding `Cc1nc2cc(F)cc(N)c2c(=O)n1[C@H]1CCC(=O)NC1=O` [Compound K102], the IC50 came to 104 nM in experiment [2] (Table 4 batch) and 7.3 nM in experiment [5] (Table 1-1 experiment).

In the case of `Cc1nc2cc(F)cc(N)c2c(=O)n1[C@@H]1CCC(=O)NC1=O` [Compound K103], the IC50 was 465 nM in experiment [2] (Table 4 batch) and 283 nM in experiment [5] (Table 1-1 experiment).

Regarding `[2H]C1(n2c(C)nc3cc(F)cc(N)c3c2=O)CCC(=O)NC1=O` (stereo not shown) [Compound K104], the IC50 in experiment [2] (Table 4 batch) was 192 nM.

With `[2H][C@]1(n2c(C)nc3cc(F)cc(N)c3c2=O)CCC(=O)NC1=O` [Compound K105], the figures for the IC50 in experiment [2] (Table 4 batch) and in experiment [5] (Table 1-1 experiment) were 33 nM and 6.4 nM, respectively.

For `[2H][C@@]1(n2c(C)nc3cc(F)cc(N)c3c2=O)CCC(=O)NC1=O` [Compound K106], the IC50 in experiment [2] (Table 4 batch) is 504 nM; in experiment [5] (Table 1-1 experiment), 781 nM.

Take `Cc1nc2cc(Cl)cc(N)c2c(=O)n1C1CCC(=O)NC1=O` (stereo not shown) [Compound K401]: the IC50 is 22 nM in experiment [2] (Table 3 batch) and 10.2 nM in experiment [5] (Table 1-1 experiment).

Consider `Cc1nc2cc(Br)cc(N)c2c(=O)n1C1CCC(=O)NC1=O` (stereo not shown) [Compound K501], for which the values for the IC50 in experiment [2] (Table 3 batch) and in experiment [5] (Table 1-1 experiment) were 26.7 nM and 9.6 nM, respectively.

In experiment [5] (Table 1-1 experiment), `CNc1cc(F)cc2nc(C)n(C3CCC(=O)NC3=O)c(=O)c12` (stereo not shown) [Compound K613] gave an IC50 of 9.4 nM.

In experiment [5] (Table 1-1 experiment), `Cc1nc2cc(F)cc(NC(C)C)c2c(=O)n1C1CCC(=O)NC1=O` (stereo not shown) [Compound K617] yielded an IC50 of 153 nM.

Regarding `COc1cc(F)cc2nc(C)n(C3CCC(=O)NC3=O)c(=O)c12` (stereo not shown) [Compound K627], in experiment [2] (Table 3 batch), the IC50 was 5930 nM.

In the case of `Cc1nc2cc(F)cc(O)c2c(=O)n1C1CCC(=O)NC1=O` (stereo not shown) [Compound K631], the IC50 in experiment [2] (Table 3 batch) is 956 nM.

As for `CC(=O)Nc1cc(F)cc2nc(C)n(C3CCC(=O)NC3=O)c(=O)c12` (stereo not shown) [Compound K633], the results for the IC50 in experiment [2] (Table 3 batch) and in experiment [5] (Table 1-1 experiment) were 314 nM and 392 nM, respectively.

Take `Cc1nc2cc(F)cc(NC(=O)C(C)C)c2c(=O)n1C1CCC(=O)NC1=O` (stereo not shown) [Compound K635]: the IC50 in experiment [2] (Table 3 batch) worked out at 2810 nM.

For the molecule `Cc1nc2cc(O)cc(N)c2c(=O)n1C1CCC(=O)NC1=O` (stereo not shown) [Compound K700], the IC50 in experiment [2] (Table 3 batch) is 507 nM.

Turning to `Cc1nc2cc(OCc3ccccc3)cc(N)c2c(=O)n1C1CCC(=O)NC1=O` (stereo not shown) [Compound K704], the IC50 in experiment [5] (Table 1-1 experiment) worked out at 466 nM.

As for `Cc1nc2cc(OCc3ccc(CN4CCOCC4)cc3F)cc(N)c2c(=O)n1C1CCC(=O)NC1=O` (stereo not shown) [Compound K706], the IC50 in experiment [5] (Table 1-1 experiment) stood at 319 nM.

On to `Cc1cc(N)c2c(=O)n(C3CCC(=O)NC3=O)c(C)nc2c1` (stereo not shown) [Compound K720], for which, in experiment [5] (Table 1-1 experiment), the IC50 was 138 nM.

In turn, `Cc1nc2cc(C#N)cc(N)c2c(=O)n1C1CCC(=O)NC1=O` (stereo not shown) [Compound K724] had an IC50 in experiment [5] (Table 1-1 experiment) of 5.9 nM.

For the molecule `Cc1nc2cc(F)ccc2c(=O)n1C1CCC(=O)NC1=O` (stereo not shown) [Reference 1, reference compound], the values for the IC50 in experiment [2] (Table 3 batch) and in experiment [5] (Table 1-1 experiment) were 2400 nM and 2800 nM, respectively.

Regarding `Cc1nc2c(F)ccc(N)c2c(=O)n1C1CCC(=O)NC1=O` (stereo not shown) [Reference 2, reference compound], the IC50 in experiment [2] (Table 3 batch) was > 300000 nM.

For `Cc1nc2ccc(F)c(N)c2c(=O)n1C1CCC(=O)NC1=O` (stereo not shown) [Reference 3, reference compound], the IC50 in experiment [2] (Table 3 batch) amounted to 1170 nM.
